Results on 73 molecules are retold here after patent US7737155B2, “Nitrogen-containing heterocyclic compounds and methods of use thereof” (Schering Corporation, priority 2005, dated 2010).

Broadly, the EC50 is the concentration giving half of the maximal effect.

A value given as a limit tells only on which side of the number the result lay.

Sequence of recombinant human nicotinic acid receptor (NAR) (Q8TDS4 whole entry): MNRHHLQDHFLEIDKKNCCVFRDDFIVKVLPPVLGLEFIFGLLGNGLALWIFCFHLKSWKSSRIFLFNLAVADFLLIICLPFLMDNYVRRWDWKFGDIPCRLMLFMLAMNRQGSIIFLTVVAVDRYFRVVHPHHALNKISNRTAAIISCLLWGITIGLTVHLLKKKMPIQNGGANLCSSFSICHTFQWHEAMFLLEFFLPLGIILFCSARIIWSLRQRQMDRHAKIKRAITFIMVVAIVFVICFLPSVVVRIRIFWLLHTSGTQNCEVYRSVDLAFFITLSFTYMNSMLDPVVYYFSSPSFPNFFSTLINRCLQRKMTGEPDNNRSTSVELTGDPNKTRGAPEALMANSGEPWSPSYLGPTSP

The target in one assay is recombinant human nicotinic acid receptor (NAR) (Homo sapiens, UniProt Q8TDS4). Briefly: Nicotinic Acid Receptor Assay: inhibition of forskolin-stimulated cAMP accumulation in CHO cells (MesoScale Discovery cAMP kit). Particulars: CHO cells expressing recombinant human NAR; forskolin-stimulated cAMP; read-out: NA EC50 camp. The format is cell-based. On the procedure:
The nicotinic acid receptor agonist activity of the inventive compounds was determined by following the inhibition of forskolin-stimulated cAMP accumulation in cells using the MesoScale Discovery cAMP detection kit following the manufacture's protocol. Briefly, Chinese Hamster Ovary (CHO) cells expressing recombinant human nicotinic acid receptor (NAR) were harvested enzymatically, washed 1× in phosphate buffered saline (PBS) and resuspended in PBS containing 0.5 mM IBMX at 3×10^6 cells/mL. Ten μL of cell suspension was added to each well of a 384-well plate which contained 10 μL of test compounds. Test compounds were diluted with PBS containing 6 μM of forskolin. Plates were incubated for 30 minutes at room temperature after the addition of cells. Lysis buffer containing cAMP-Tag was added to each well (10 μL/well) as per the manufacturer's protocol. Plates were then incubated from 45 minutes to overnight. Prior to reading, 10 μL of read buffer was added to each well, and the plate was read in a Sector 6000 plate imager. The signal was converted to cAMP concentration using a standard curve run on each plate.
In general terms: Changes in cAMP serve as a functional read-out for many G protein-coupled receptors.
Consider `O=c1[nH]c(=O)c2c(CCCOCc3ccccc3)cc(=O)oc2[nH]1` [Compound 264], for which the EC50 is greater than 1000 nM.

As for `O=c1[nH]c(=O)c2c(Cc3cccc4ccccc34)cc(=O)oc2[nH]1` [Compound 265], the EC50 was greater than 1000 nM.

On to `CCC(CC)Cc1cc(=O)oc2[nH]c(=O)[nH]c(=O)c12` [Compound 267], for which the EC50 was greater than 1000 nM.

Consider `CCC(CC)CCc1cc(=O)oc2[nH]c(=O)[nH]c(=O)c12` [Compound 269], for which the EC50 was in the range of 100 to 1000 nM.

For `CCCOCCCc1cc(=O)oc2[nH]c(=O)[nH]c(=O)c12` [Compound 270], the EC50 was 0.001 to 100 nM.

Regarding `O=c1[nH]c(=O)c2c(CCCOC3CCCC3)cc(=O)oc2[nH]1` [Compound 271], the EC50 lay within 100 to 1000 nM.

`CC1(CCc2cc(=O)oc3[nH]c(=O)[nH]c(=O)c23)CC1` [Compound 272]: the EC50 was 100 to 1000 nM.

For the molecule `O=c1[nH]c(=O)c2c(CCCOCC3CC3)cc(=O)oc2[nH]1` [Compound 273], the EC50 lay within 100 to 1000 nM.

For the molecule `O=c1cc(CCC2CC2)c2c(=O)[nH]c(=O)n(C3CCC3)c2o1` [Compound 274], the EC50 is 100 to 1000 nM.

As for `Cn1c(=O)[nH]c(=O)c2c(CCC3CC3)cc(=O)oc21` [Compound 275], the EC50 lay in the range of 100 to 1000 nM.

Consider `Cn1c(=O)[nH]c2oc(=O)cc(CCC3CC3)c2c1=O` [Compound 276], for which the EC50 lay within 100 to 1000 nM.

Take `CCn1c(=O)[nH]c(=O)c2c(CCC3CC3)cc(=O)oc21` [Compound 277]: the EC50 was greater than 1000 nM.

In the case of `CCn1c(=O)[nH]c2oc(=O)cc(CCC3CC3)c2c1=O` [Compound 278], the EC50 was in the range of 100 to 1000 nM.

As to `COC(C)(C)CCc1cc(=O)oc2[nH]c(=O)[nH]c(=O)c12` [Compound 279], the EC50 is greater than 1000 nM.

`O=c1cc(CCCCc2cccs2)c2c(=O)n(C3CCC3)c(=O)[nH]c2o1` [Compound 280]: the EC50 is greater than 1000 nM.

As for `O=c1cc(CCCc2cccs2)c2c(=O)n(C3CCC3)c(=O)[nH]c2o1` [Compound 281], the EC50 fell in the range of 100 to 1000 nM.

`O=c1cc(CCc2cccs2)c2c(=O)n(C3CCC3)c(=O)[nH]c2o1` [Compound 282]: the EC50 fell in the range of 100 to 1000 nM.

Take `O=c1[nH]c(=O)c2c(C3CC3)cc(=O)oc2[nH]1` [Compound 283]: the EC50 was 100 to 1000 nM.

Turning to `CC(C)(C)CCCc1cc(=O)oc2[nH]c(=O)n(C3CCC3)c(=O)c12` [Compound 284], the EC50 lay in the range of 100 to 1000 nM.

Regarding `CC1(CCCc2cc(=O)oc3[nH]c(=O)n(C4CCC4)c(=O)c23)CC1` [Compound 285], the EC50 is 100 to 1000 nM.

`O=c1[nH]c(=O)c2c(CCCC3CCC3)cc(=O)oc2[nH]1` [Compound 286]: the EC50 is 0.001 to 100 nM.

Turning to `O=c1[nH]c(=O)c2c(CCCOC3CCCCC3)cc(=O)oc2[nH]1` [Compound 287], the EC50 was greater than 1000 nM.

For `CC(C)(C#N)CCCc1cc(=O)oc2[nH]c(=O)[nH]c(=O)c12` [Compound 288], the EC50 was greater than 1000 nM.

For the molecule `CCn1c(=O)[nH]c2oc(=O)cc(C)c2c1=O` [Compound 289], the EC50 was greater than 1000 nM.

Take `O=c1[nH]c(=O)c2c(CCCOC3CCC3)cc(=O)oc2[nH]1` [Compound 290]: the EC50 was 100 to 1000 nM.

In the case of `CCn1c(=O)[nH]c(=O)c2c(C)cc(=O)oc21` [Compound 291], the EC50 was greater than 1000 nM.

With `CCCCc1c(-c2ccccc2)c(=O)oc2[nH]c(=O)[nH]c(=O)c12` [Compound 292], the EC50 is 100 to 1000 nM.

Take `O=c1[nH]c(=O)c2c(CCC(C3CC3)C3CC3)cc(=O)oc2[nH]1` [Compound 293]: the EC50 was 100 to 1000 nM.

Regarding `N#CC1(CCCc2cc(=O)oc3[nH]c(=O)[nH]c(=O)c23)CC1` [Compound 294], the EC50 was 100 to 1000 nM.

Regarding `CC1CC1CCc1cc(=O)oc2[nH]c(=O)[nH]c(=O)c12` (stereo not drawn) [Compound 295], the EC50 is 100 to 1000 nM.

For `CC1CC(c2cc(=O)oc3[nH]c(=O)[nH]c(=O)c23)C1` (stereo not drawn) [Compound 296], the EC50 was in the range of 100 to 1000 nM.

`O=c1[nH]c(=O)c2c(CCCC3CCCC3)cc(=O)oc2[nH]1` [Compound 297]: the 50% effective concentration (EC50) was 0.001 to 100 nM.

For the molecule `CCc1cc(=O)oc2nc(O[C@H](C)c3ccc4ccccc4c3)[nH]c(=O)c12` [Compound 500], the EC50 lay in the range of 100 to 1000 nM.

On to `CCc1cc(=O)oc2nc(O[C@@H](C)c3ccc4ccccc4c3)[nH]c(=O)c12` [Compound 501], for which the EC50 was in the range of 0.001 to 100 nM.

For the molecule `CCc1cc(=O)oc2nc(OCc3cc(Cl)cc(Cl)c3)[nH]c(=O)c12` [Compound 503], the EC50 lay within 100 to 1000 nM.

For the molecule `CCc1cc(=O)oc2nc(OCc3ccc(C)cc3C)[nH]c(=O)c12` [Compound 504], the EC50 is 100 to 1000 nM.

With `CCc1cc(=O)oc2nc(OCc3cc(C)cc(C)c3)[nH]c(=O)c12` [Compound 505], the EC50 lay within 100 to 1000 nM.

On to `CCc1cc(=O)oc2nc(OCc3cc(F)cc(F)c3)[nH]c(=O)c12` [Compound 506], for which the EC50 was greater than 1000 nM.

`CCc1cc(=O)oc2nc(OCc3cc(Cl)ccc3OC)[nH]c(=O)c12` [Compound 507]: the half-maximal effective concentration (EC50) is 0.001 to 100 nM.

Regarding `CCc1cc(=O)oc2nc(OC(C)c3ccccc3C(F)(F)F)[nH]c(=O)c12` (stereo not drawn) [Compound 508], the EC50 was greater than 1000 nM.

Turning to `CCc1cc(=O)oc2nc(OCc3ccccc3-c3ccc(F)cc3)[nH]c(=O)c12` [Compound 510], the EC50 is greater than 1000 nM.

Take `CCc1cc(=O)oc2nc(OCc3cc(C)c(OC)c(C)n3)[nH]c(=O)c12` [Compound 511]: the EC50 is greater than 1000 nM.

In the case of `CCc1cc(=O)oc2nc(OCc3ocnc3C)[nH]c(=O)c12` [Compound 513], the EC50 was in the range of 100 to 1000 nM.

Consider `CCc1cc(=O)oc2nc(OCc3ccc(C(F)(F)F)cc3C(F)(F)F)[nH]c(=O)c12` [Compound 514], for which the EC50 was greater than 1000 nM.

In the case of `CCc1cc(=O)oc2nc(OCc3ccc(Cl)cc3OC)[nH]c(=O)c12` [Compound 515], the EC50 lay in the range of 100 to 1000 nM.

Take `CCc1cc(=O)oc2nc(OCc3ccc(C)c(C(F)(F)F)c3)[nH]c(=O)c12` [Compound 516]: the EC50 is greater than 1000 nM.

With `CCc1cc(=O)oc2nc(OCc3ccc(-c4ccccc4)cc3)[nH]c(=O)c12` [Compound 517], the EC50 is greater than 1000 nM.

Take `CCc1cc(=O)oc2nc(OCc3ccc(-c4ccccc4)cc3F)[nH]c(=O)c12` [Compound 518]: the EC50 is 100 to 1000 nM.

`CCOC(=O)COc1nc2oc(=O)cc(CC)c2c(=O)[nH]1` [Compound 519]: the EC50 was greater than 1000 nM.

On to `CCc1cc(=O)oc2nc(OCc3cccc(-c4ccccc4)n3)[nH]c(=O)c12` [Compound 520], for which the concentration giving a half-maximal response (EC50) was greater than 1000 nM.

In the case of `CCc1cc(=O)oc2nc(OCc3ccc(Cl)c(C(F)(F)F)c3)[nH]c(=O)c12` [Compound 521], the EC50 is 100 to 1000 nM.

With `CCc1cc(=O)oc2nc(OCC#Cc3ccccc3)[nH]c(=O)c12` [Compound 522], the half-maximal effective concentration (EC50) lay within 100 to 1000 nM.

As for `CCc1cc(=O)oc2nc(OCc3ccncc3)[nH]c(=O)c12` [Compound 523], the EC50 fell in the range of 0.001 to 100 nM.

Turning to `CCc1cc(=O)oc2nc(OCCOc3ccccc3)[nH]c(=O)c12` [Compound 525], the EC50 is 100 to 1000 nM.

On to `CCc1cc(=O)oc2nc(OCc3c(-c4ccccc4)noc3C)[nH]c(=O)c12` [Compound 526], for which the 50% effective concentration (EC50) lay within 100 to 1000 nM.

`CCc1cc(=O)oc2nc(OCc3ccc4ccccc4n3)[nH]c(=O)c12` [Compound 527]: the EC50 lay in the range of 100 to 1000 nM.

As to `CCc1cc(=O)oc2nc(OCc3nccc4ccccc34)[nH]c(=O)c12` [Compound 528], the EC50 fell in the range of 100 to 1000 nM.

On to `CCc1cc(=O)oc2nc(OCc3cc(C)nn3C)[nH]c(=O)c12` [Compound 529], for which the concentration for a half-maximal effect (EC50) lay in the range of 100 to 1000 nM.

Turning to `CCc1cc(=O)oc2nc(OCc3cc(C)n(C)n3)[nH]c(=O)c12` [Compound 530], the EC50 lay in the range of 100 to 1000 nM.

As to `CCc1cc(=O)oc2nc(OCc3c(C)noc3-c3ccccc3)[nH]c(=O)c12` [Compound 531], the EC50 lay within 100 to 1000 nM.

On to `CCc1cc(=O)oc2nc(OCc3snnc3-c3ccccc3)[nH]c(=O)c12` [Compound 532], for which the EC50 was in the range of 100 to 1000 nM.

As to `CCc1cc(=O)oc2nc(OCc3sccc3-n3cccc3)[nH]c(=O)c12` [Compound 533], the EC50 was greater than 1000 nM.

Turning to `CCc1cc(=O)oc2nc(OCc3cc(Br)cs3)[nH]c(=O)c12` [Compound 534], the EC50 is 100 to 1000 nM.

In the case of `CCc1cc(=O)oc2nc(OCc3nn(-c4ccccc4)nc3C)[nH]c(=O)c12` [Compound 535], the EC50 was 100 to 1000 nM.

For the molecule `CCc1cc(=O)oc2nc(OCc3ccc(Br)cn3)[nH]c(=O)c12` [Compound 536], the EC50 is 100 to 1000 nM.

On to `CCc1cc(=O)oc2nc(OCCc3cccc4ccccc34)[nH]c(=O)c12` [Compound 537], for which the EC50 was greater than 1000 nM.

For `CCc1cc(=O)oc2nc(OCc3cc4ccccc4s3)[nH]c(=O)c12` [Compound 538], the EC50 is 100 to 1000 nM.

On to `CCc1cc(=O)oc2nc(OCc3cc(C)ccc3C)[nH]c(=O)c12` [Compound 539], for which the EC50 was 100 to 1000 nM.

As for `CCc1cc(=O)oc2nc(OCc3ncoc3-c3ccccc3)[nH]c(=O)c12` [Compound 540], the EC50 lay within 100 to 1000 nM.

For the molecule `CCc1cc(=O)oc2nc(OCc3csc(-c4cccs4)n3)[nH]c(=O)c12` [Compound 541], the EC50 was in the range of 100 to 1000 nM.

Staying with this assay, now noted: NA EC50 camp (nM), CHO cells expressing recombinant human NAR; forskolin-stimulated cAMP.
With `CCc1cc(=O)oc2nc(OCc3ccccc3-c3cccc(C#N)c3)[nH]c(=O)c12` [Compound 509], the EC50 lay within 100 to 1000 nM.

`CCC#CCOc1nc2oc(=O)cc(CC)c2c(=O)[nH]1` [Compound 512]: the concentration giving a half-maximal response (EC50) was in the range of 0.001 to 100 nM.

Regarding `CCc1cc(=O)oc2nc(OCCOC)[nH]c(=O)c12` [Compound 524], the EC50 lay in the range of 100 to 1000 nM.

Staying with this assay, now noted: inhibition of forskolin-stimulated cAMP accumulation, CHO cells expressing recombinant human NAR; read-out: NA EC50 camp.
Consider `CCCCc1c(-c2ccccc2)c(=O)oc2[nH]c(=O)[nH]c(=O)c12` [Compound 292], for which the EC50 came out at 300 nM.

Take `O=c1[nH]c(=O)c2c(CCCC3CCCC3)cc(=O)oc2[nH]1` [Compound 297]: the EC50 was found to be 56.7 nM.
